Reference: patent publication US20210188843A1, “QUINOLINE COMPOUNDS AND THEIR PREPARATION AND USE AS ANTIMALARIAL AGENTS” (The United States of America,as represented by the …, priority 2018, published 2021)
≈ marks a conversion by molar mass, not a printed value.

What was measured:
[1] = system: Asexual parasites of P. falciparum strain 3D7; experiment: In vitro drug activity on asexual parasites (SYBR Green assay); type: cell-based; conditions: Plasmodium falciparum; Table 1; P. falciparum 3D7 asexual stage, 72 h; read-out: Asexual EC50
Procedure, shortened: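 3D7 asexual cultures at 0.5% parasitemia and 2% hematocrit were exposed to drug (DMSO <0.5%) for 72 h under standard culture conditions, in duplicate with no-drug and RBC-only controls. After freeze-thaw lysis, SYBR Green I lysis buffer was added for 30 min at room temperature; fluorescence was read at 490 nm excitation/520 nm emission.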

[2] = Microsomal stability (rat); type: in vitro ADME; conditions: rat microsomes, Table 1, read-out: Microsomal Stability (rat) T1/2
Solubility pH 7.4 = type: physicochemical; conditions: aqueous buffer, Table 1
PAMPA permeability = type: in vitro ADME; conditions: Table 1

SMILES | EC50 [1] | half-life [2] | solubility (Solubility pH 7.4) | Papp (PAMPA permeability)
Cn1c(=N)n(-c2cccc(Cl)c2)c2c3cc(-c4ccc(Cl)cc4)ccc3ncc21 [Compound 28, 1-(3-chlorophenyl)-8-(4-chlorophenyl)-3-methyl-1,3-dihydro-2H-imidazo[4,5-c]quinolin-2-imine] | 186 nM | > 30 min | < 1 µg/mL | 226 ×10⁻⁶ cm/s
Cc1ccc(Cl)cc1-n1c(=N)n(C)c2cnc3ccc(-c4ccc(Cl)cc4)cc3c21 [Compound 29, 1-(5-chloro-2-methylphenyl)-8-(4-chlorophenyl)-3-methyl-1,3-dihydro-2H-imdazo[4,5-c]quinolin-2-imine] | 136 nM | > 30 min | < 1 µg/mL | 1680 ×10⁻⁶ cm/s
Cc1ccc(C#N)cc1-n1c(=N)n(C)c2cnc3ccc(-c4ccc(Cl)c(C#N)c4)cc3c21 [Compound 30, 2-chloro-5-(1-(5-cyano-2-methylphenyl)-2-imino-3-methyl-2,3-dihydro-1H-imidazo[4,5-c]quinolin-8-yl)benzonitrile] | 60.3 nM | > 30 min | 7.3 µg/mL (≈ 16.3 µM) | 1210 ×10⁻⁶ cm/s
COc1cc(-c2ccc3ncc4c(c3c2)n(-c2cc(C#N)ccc2C)c(=N)n4C)ccc1Cl [Compound 31, 3-(8-(4-chloro-3-methoxyphenyl)-2-imino-3-methyl-2,3-dihydro-1H-imidazo[4,5-c]quinolin-1-yl)-4-methylbenzonitrile] | 27.2 nM | > 30 min | < 1 µg/mL | 433 ×10⁻⁶ cm/s
COc1cccc(-c2ccc3ncc4c(c3c2)n(-c2cc(C#N)ccc2C)c(=N)n4C)c1 [Compound 32, 3-(2-imino-8-(3-methoxyphenyl)-3-methyl-2,3-dihydro-H-imidazo[4,5-c]quinolin-1-yl)-4-methylbenzonitrile] | 420 nM | > 30 min | > 42 µg/mL | 678 ×10⁻⁶ cm/s
Cc1ccc(C#N)cc1-n1c(=N)n(C)c2cnc3ccc(-c4cccc(Cl)c4)cc3c21 [Compound 33, 3-(8-(3-chlorophenyl)-2-imino-3-methyl-2,3-dihydro-1H-imidazo[4,5-c]quinolin-1-yl)-4-methylbenzonitrile] | 297 nM | > 30 min | 14.5 µg/mL (≈ 34.2 µM) | 1820 ×10⁻⁶ cm/s
Cc1ccc(C#N)cc1-n1c(=N)n(C)c2cnc3ccc(-c4cccc(F)c4)cc3c21 [Compound 34, 3-(8-(3-fluorophenyl)-2-imino-3-methyl-2,3-dihydro-1H-imidazo[4,5-c]quinolin-1-yl)-4-methylbenzonitrile] | 47.3 nM | > 30 min | > 40 µg/mL | 852 ×10⁻⁶ cm/s
Cc1ccc(C#N)cc1-n1c(=N)n(C)c2cnc3ccc(-c4ccccc4)cc3c21 [Compound 35, 3-(2-imino-3-methyl-8-phenyl-2,3-dihydro-1H-imidazo[4,5-c]quinolin-1-yl)-4-methylbenzonitrile] | 34 nM | > 30 min | > 39 µg/mL | 716 ×10⁻⁶ cm/s
Cc1cccc(-c2ccc3ncc4c(c3c2)n(-c2cc(C#N)ccc2C)c(=N)n4C)c1 [Compound 36, 3-(2-imino-3-methyl-8-(m-tolyl)-2,3-dihydro-1H-imidazo[4,5-c]quinolin-1-yl)-4-methylbenzonitrile] | 158 nM | 27 min | > 40 µg/mL | 1150 ×10⁻⁶ cm/s
Cc1ccc(C#N)cc1-n1c(=N)n(C)c2cnc3ccc(-c4cccc(O)c4)cc3c21 [Compound 37, 3-(8-(3-hydroxyphenyl)-2-imino-3-methyl-2,3-dihydro-1H-imidazo[4,5-c]quinolin-1-yl)-4-methylbenzonitrile] | 46.1 nM | > 30 min | > 40 µg/mL | 10.3 ×10⁻⁶ cm/s
Cc1ccc(C#N)cc1-n1c(=N)n(C)c2cnc3ccc(-c4cccc(N)c4)cc3c21 [Compound 38, 3-(8-(3-aminophenyl)-2-imino-3-methyl-2,3-dihydro-1H-imidazo[4,5-c]quinolin-1-yl)-4-methylbenzonitrile] | 83 nM | > 30 min | > 40 µg/mL | 435 ×10⁻⁶ cm/s
Cc1ccc(C#N)cc1-n1c(=N)n(C)c2cnc3ccc(-c4ccc(F)c(O)c4)cc3c21 [Compound 39, 3-(8-(4-fluoro-3-hydroxyphenyl)-2-imino-3-methyl-2,3-dihydro-1H-imidazo[4,5-c]quinolin-1-yl)-4-methylbenzonitrile] | 54.5 nM | > 30 min | > 42 µg/mL | 147 ×10⁻⁶ cm/s
COc1ccc(-c2ccc3ncc4c(c3c2)n(-c2cc(C#N)ccc2C)c(=N)n4C)cc1OC [Compound 41, 3-(8-(3,4-dimethoxyphenyl)-2-imino-3-methyl-2,3-dihydro-1H-imidazo[4,5-c]quinolin-1-yl)-4-methylbenzonitrile] | 46.2 nM | > 30 min | > 44 µg/mL | 988 ×10⁻⁶ cm/s
Cc1ccc(C#N)cc1-n1c(=N)n(C)c2cnc3ccc(-c4ccc(Cl)c(Cl)c4)cc3c21 [Compound 42, 3-(8-(3,4-dichlorophenyl)-2-imino-3-methyl-2,3-dihydro-1H-imidazo[4,5-c]quinolin-1-yl)-4-methylbenzonitrile] | 574 nM | > 30 min | < 1 µg/mL | 1650 ×10⁻⁶ cm/s
Cc1ccc(C#N)cc1-n1c(=N)n(C)c2cnc3ccc(-c4ccc(F)c(F)c4)cc3c21 [Compound 43, 3-(8-(3,4-difluorophenyl)-2-imino-3-methyl-2,3-dihydro-1H-imidazo[4,5-c]quinolin-1-yl)-4-methylbenzonitrile] | 118 nM | > 30 min | 8.3 µg/mL (≈ 19.5 µM) | 837 ×10⁻⁶ cm/s
Cc1ccc(C#N)cc1-n1c(=N)n(C)c2cnc3ccc(-c4ccc(Cl)cn4)cc3c21 [Compound 44, 3-(8-(5-chloropyridin-2-yl)-2-imino-3-methyl-2,3-dihydro-1H-imidazo[4,5-c]quinolin-1-yl)-4-methylbenzonitrile] | 119 nM | > 30 min | > 42 µg/mL | 1560 ×10⁻⁶ cm/s
Cn1c(=N)n(-c2cnc(N3CCNCC3)c(C#N)c2)c2c3cc(-c4ccc(Cl)cc4)ccc3ncc21 [Compound 48, 5-(8-(4-chlorophenyl)-2-imino-3-methyl-2,3-dihydro-1H-imidazo[4,5-c]quinolin-1-yl)-2-(piperazin-1-yl)nicotinonitrile] | 125 nM | > 30 min | < 1 µg/mL | 30.5 ×10⁻⁶ cm/s
Cn1c(=N)n(-c2ccc(N3CCNCC3)c(C#N)c2)c2c3cc(-c4ccc(Cl)cc4)ccc3ncc21 [Compound 49, 5-(8-(4-chlorophenyl)-2-imino-3-methyl-2,3-dihydro-1H-imidazo[4,5-c]quinolin-1-yl)-2-(piperazin-1-yl)benzonitrile] | 58.2 nM | > 30 min | 1 µg/mL (≈ 2.02 µM) | 4.9 ×10⁻⁶ cm/s
Cn1c(=N)n(-c2ccc(N3CCOCC3)c(C#N)c2)c2c3cc(-c4ccc(Cl)cc4)ccc3ncc21 [Compound 51, 5-(8-(4-chlorophenyl)-2-imino-3-methyl-2,3-dihydro-1H-imidazo[4,5-c]quinolin-1-yl)-2-morpholinobenzonitrile] | 186 nM | > 30 min | < 1 µg/mL | 81.1 ×10⁻⁶ cm/s
Cc1ccc(C#N)cc1-n1c(=N)n(C)c2cnc3ccc(-c4ncc(Cl)cn4)cc3c21 [Compound 52, 3-(8-(5-chloropyrimidin-2-yl)-2-imino-3-methyl-2,3-dihydro-1H-imidazo[4,5-c]quinolin-1-yl)-4-methylbenzonitrile] | 444 nM | > 30 min | > 42 µg/mL | 1430 ×10⁻⁶ cm/s
COc1ccc(C#N)cc1-n1c(=N)n(C)c2cnc3ccc(-c4ccc(Cl)cc4)cc3c21 [Compound 53, 3-(8-(4-chlorophenyl)-2-imino-3-methyl-2,3-dihydro-1H-imidazo[4,5-c]quinolin-1-yl)-4-methoxybenzonitrile] | 120 nM | > 30 min | 12.2 µg/mL (≈ 27.7 µM) | 850 ×10⁻⁶ cm/s
Cc1ccc(C#N)cc1-n1/c(=N/C(N)=O)n(C)c2cnc3ccc(-c4ccc(F)cc4)cc3c21 [Compound 55, (E)-1-(1-(5-cyano-2-methylphenyl)-8-(4-fluorophenyl)-3-methyl-1,3-dihydro-2H-imidazo[4,5-c]quinolin-2-ylidene)urea] | 95.1 nM | > 30 min | 1.3 µg/mL (≈ 2.89 µM) | 466 ×10⁻⁶ cm/s
Cc1ccc(C#N)cc1-n1/c(=N/C(=N)N)n(C)c2cnc3ccc(-c4ccc(F)cc4)cc3c21 [Compound 56, (E)-1-(1-(5-cyano-2-methylphenyl)-8-(4-fluorophenyl)-3-methyl-1,3-dihydro-2H-imidazo[4,5-c]quinolin-2-ylidene)guanidine] | 1460 nM | > 30 min | > 44 µg/mL | 1.7 ×10⁻⁶ cm/s
Cn1c(=N)n(C2CC(N3CCOCC3)C2)c2c3cc(-c4ccc(Cl)cc4)ccc3ncc21 (centres unmarked) [Compound 58, 8-(4-chlorophenyl)-3-methyl-1-(3-morpholinocyclobutyl)-1,3-dihydro-2H-imidazo[4,5-c]quinolin-2-imine] | 2670 nM | > 30 min | > 44 µg/mL | 816 ×10⁻⁶ cm/s
Cc1ccc(C#N)cc1-n1c(=N)n(C)c2cnc3ccc(C4=CCN(C)C4)cc3c21 [Compound 60, 3-(2-imino-3-methyl-8-(1-methyl-2,5-dihydro-1H-pyrrol-3-yl)-2,3-dihydro-1H-imidazo[4,5-c]quinolin-1-yl)-4-methylbenzonitrile] | 481 nM | > 30 min | > 39 µg/mL | 2 ×10⁻⁶ cm/s
Cn1c(=N)n(-c2ccc(C(=O)NC3CC3)cc2)c2c3cc(-c4ccc(Cl)cc4)ccc3ncc21 [Compound 65, 4-(8-(4-chlorophenyl)-2-imino-3-methyl-2,3-dihydro-1H-imidazo[4,5-c]quinolin-1-yl)-N-cyclopropylbenzamide] | 580 nM | > 30 min | 6.1 µg/mL (≈ 13 µM) | 10.2 ×10⁻⁶ cm/s
